Activity calls are given as the source filed them.
Tests used:
[1] = luciferase reporter signal suppression in cells – H4 neuroglioma cells, luminescence, dose response (AID 1990); format: functional, cell-based
[2] = target: Disintegrin and metalloproteinase domain-containing protein 17 (Homo sapiens, UniProt P78536); test: exosite inhibitors of ADAM17, dose response, biochemical (AID 743260)
[3] = alpha-synuclein stem-loop luciferase translation blockers – H4 neuroglioma cells, luminescence, confirmation (AID 1988); format: functional, cell-based
[4] = inhibition of ADAM10 peptide cleavage – biochemical, FRET peptide substrate, recombinant human ADAM10, selectivity assay for ADAM17 exosite inhibitor project, dose response (AID 743259);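 further: ADAM10 enzyme cleaving a FRET peptide substrate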
[5] = Luminescence Cell-Based Dose Response HTS to Identify Inhibitors of 5'UTR Stem-Loop Driven Prion Protein mRNA Translation in H4 Neuroglioblastoma Cells. [Related pubchem assays: 1827 (Project Summary), 1813 (Primary HTS)]; format: functional
[6] = human cervical cancer cell viability loss – 24 h, plate reader, dry powder, cytotoxicity control, dose response (AID 686928); format: functional, cell-based; conditions: HeLa
[7] = target: T1, Corticotropin-releasing factor receptor 2/Corticotropin-releasing factor-binding protein (Homo sapiens, UniProt P24387+Q13324); test: activators of CRF receptor 2 with binding protein – uHTS hits, confirmation (AID 602473); format: functional; conditions: read-out: EC50_Mean
T1 sequence (Q13324 whole entry): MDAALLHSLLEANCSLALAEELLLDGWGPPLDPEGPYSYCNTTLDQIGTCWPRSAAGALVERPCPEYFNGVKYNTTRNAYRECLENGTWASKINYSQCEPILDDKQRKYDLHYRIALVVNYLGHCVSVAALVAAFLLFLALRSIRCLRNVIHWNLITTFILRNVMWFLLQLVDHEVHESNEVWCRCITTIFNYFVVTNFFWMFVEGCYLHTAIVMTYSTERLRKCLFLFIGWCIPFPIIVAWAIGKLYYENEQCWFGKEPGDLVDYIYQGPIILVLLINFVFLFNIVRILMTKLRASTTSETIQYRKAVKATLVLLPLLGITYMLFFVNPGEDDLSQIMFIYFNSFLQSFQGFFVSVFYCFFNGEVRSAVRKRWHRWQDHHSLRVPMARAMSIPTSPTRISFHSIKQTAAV
T1 sequence (P24387 whole entry): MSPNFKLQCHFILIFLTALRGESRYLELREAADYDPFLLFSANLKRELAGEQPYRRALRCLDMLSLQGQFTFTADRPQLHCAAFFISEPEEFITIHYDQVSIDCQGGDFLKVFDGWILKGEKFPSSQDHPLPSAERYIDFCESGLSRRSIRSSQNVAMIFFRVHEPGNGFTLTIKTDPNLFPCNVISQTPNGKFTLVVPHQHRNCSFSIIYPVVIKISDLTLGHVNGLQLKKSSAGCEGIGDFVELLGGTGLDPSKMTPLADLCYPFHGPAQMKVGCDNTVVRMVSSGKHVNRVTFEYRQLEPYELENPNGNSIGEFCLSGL

[8] = target: T1, Corticotropin-releasing factor receptor 2/Corticotropin-releasing factor-binding protein; test: Dose Response confirmation of uHTS hits for small molecule antagonists of the CRF-binding protein and CRF-R2 receptor complex.; format: functional; conditions: read-out: IC50_Mean
cells [9] = format: functional, cell-based
[10] = target: Nuclear receptor subfamily 0 group B member 1 (Homo sapiens, UniProt P51843); format: functional, cell-based;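 further: HEK293T cells transfected with SF-1 and DAX-1 plus StAR promoter luciferase reporter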
Sequence of Nuclear receptor subfamily 0 group B member 1 (P51843 whole entry): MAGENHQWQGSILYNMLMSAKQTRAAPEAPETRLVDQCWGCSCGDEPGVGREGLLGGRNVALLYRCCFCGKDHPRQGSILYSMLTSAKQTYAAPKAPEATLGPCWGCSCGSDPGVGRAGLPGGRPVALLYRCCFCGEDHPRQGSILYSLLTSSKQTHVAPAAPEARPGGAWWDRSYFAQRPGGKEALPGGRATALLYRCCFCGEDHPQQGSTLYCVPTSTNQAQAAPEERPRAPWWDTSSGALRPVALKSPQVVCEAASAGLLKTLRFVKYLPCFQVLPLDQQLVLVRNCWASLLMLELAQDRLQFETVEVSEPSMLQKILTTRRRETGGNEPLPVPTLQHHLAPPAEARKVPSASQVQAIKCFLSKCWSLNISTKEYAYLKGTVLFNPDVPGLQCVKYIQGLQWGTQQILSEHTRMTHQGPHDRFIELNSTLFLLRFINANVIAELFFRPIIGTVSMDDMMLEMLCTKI

[11] = NIH3T3 cell viability loss – ATP luminescence, mouse fibroblasts, counter-screen, dose response (AID 2010); format: functional, cell-based;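 further: cells exposed to compound for about 90 hours before reading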
[12] = blockers of HIV-1 ZM109 envelope-driven cell-cell fusion – HeLa effector, CEM target cells, luciferase, cherry-pick, dose response (AID 652058); format: functional, cell-based;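 further: luciferase signal from HIV-1 Env mediated cell-cell fusion of effector and target cells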
[13] = fluconazole-exposed Candida albicans growth modulators – fluorescence, retest, confirmation (AID 2467); format: functional, cell-based
[14] = NIH-3T3 fibroblast cytotoxicity, dose response, cytotoxicity control, cell-based, fluorescence, Alamar Blue, secondary assay (AID 2327); format: functional;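 further: NIH-3T3 mouse fibroblasts cultured with fluconazole at 8 µg/mL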
[15] = HIV-1 AD8 envelope cell-cell fusion blockers – cherry-pick, dose response (AID 652062); format: functional, cell-based;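 further: luciferase signal from cell-cell fusion driven by HIV-1 clade B AD8 Env; potency is for inhibitors of fusion seen as a drop in luminescence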
[16] = viability loss in CEM21 cells – cell-based, CellTiter-Glo luminescence, cherry-picked, cytotoxicity control for viral fusion inhibitor project, dose response (AID 652042); format: functional;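 further: potency for signal decrease meaning cytotoxicity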
[17] = blockers of HIV-1 envelope-mediated cell-cell fusion – cherry-pick, dose response (AID 652057); format: functional, cell-based
[18] = off-target signal loss in HeLa-CEM21 co-culture – HeLa F-luc CTL cells, cherry-picked, counter-screen for HIV-1 Env fusion inhibitor project, dose response (AID 652040); format: functional, cell-based;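 further: potency for signal decrease marking cytotoxic or nonspecific inhibition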
Cytochrome P450 2C19 = Cytochrome P450 2C19 (Homo sapiens, UniProt P33261); test: Cytochrome panel assay with activity outcomes. Panel member name: p450-cyp2c19 Compounds with AC50 equal or less than 10 uM are considered active; format: functional
Sequence of Cytochrome P450 2C19 (P33261 whole entry): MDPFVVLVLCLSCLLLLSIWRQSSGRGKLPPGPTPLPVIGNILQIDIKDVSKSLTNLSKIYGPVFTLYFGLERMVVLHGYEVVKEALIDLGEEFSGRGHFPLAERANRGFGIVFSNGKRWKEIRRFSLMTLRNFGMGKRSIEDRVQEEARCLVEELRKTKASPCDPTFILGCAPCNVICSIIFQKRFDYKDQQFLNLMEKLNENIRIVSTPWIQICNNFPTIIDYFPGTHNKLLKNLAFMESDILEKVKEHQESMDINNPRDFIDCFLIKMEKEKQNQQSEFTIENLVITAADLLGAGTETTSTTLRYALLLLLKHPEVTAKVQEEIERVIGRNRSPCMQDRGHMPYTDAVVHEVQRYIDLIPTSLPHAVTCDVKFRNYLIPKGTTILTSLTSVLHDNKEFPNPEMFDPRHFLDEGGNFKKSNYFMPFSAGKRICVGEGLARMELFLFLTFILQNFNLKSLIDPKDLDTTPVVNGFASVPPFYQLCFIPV

cells [19] = test: cells
[20] = Trypanosoma cruzi growth suppression in host cells – NIH3T3 host cells, beta-gal luminescence, confirmation (AID 2044); format: functional, cell-based;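 further: intracellular parasites grown in NIH/3T3 mouse fibroblasts as host cells; luminescent beta-galactosidase reporter signal from transgenic T. cruzi replicating inside host cells; inhibitors lower the luminescence signal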
[21] = HGIII-sPLA2 enzyme inhibition potency – biochemical, QFRET, IC50, dose response (AID 743457);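 further: green fluorescence rise as the enzyme cleaves BODIPY PC-A2 in liposomes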
[22] = general mammalian cell viability loss – inhibitor set, cherry-pick, set 2, cytotoxicity control for miR-122 modulator project, dose response (AID 720697); format: functional, cell-based
[23] = activation of miR-122 Renilla sensor silencing – cell-based, Huh7 psiCHECK-miR122, Renilla luciferase, cherry-picked, dose response (AID 651956); format: functional;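 further: huh7 hepatoma cells stably carrying a psiCHECK-2 miR-122 sensor plasmid; renilla luciferase signal reporting endogenous miR-122 activity after 48 h compound exposure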

Sequence of Disintegrin and metalloproteinase domain-containing protein 17 (P78536 whole entry, the tested form may be a part): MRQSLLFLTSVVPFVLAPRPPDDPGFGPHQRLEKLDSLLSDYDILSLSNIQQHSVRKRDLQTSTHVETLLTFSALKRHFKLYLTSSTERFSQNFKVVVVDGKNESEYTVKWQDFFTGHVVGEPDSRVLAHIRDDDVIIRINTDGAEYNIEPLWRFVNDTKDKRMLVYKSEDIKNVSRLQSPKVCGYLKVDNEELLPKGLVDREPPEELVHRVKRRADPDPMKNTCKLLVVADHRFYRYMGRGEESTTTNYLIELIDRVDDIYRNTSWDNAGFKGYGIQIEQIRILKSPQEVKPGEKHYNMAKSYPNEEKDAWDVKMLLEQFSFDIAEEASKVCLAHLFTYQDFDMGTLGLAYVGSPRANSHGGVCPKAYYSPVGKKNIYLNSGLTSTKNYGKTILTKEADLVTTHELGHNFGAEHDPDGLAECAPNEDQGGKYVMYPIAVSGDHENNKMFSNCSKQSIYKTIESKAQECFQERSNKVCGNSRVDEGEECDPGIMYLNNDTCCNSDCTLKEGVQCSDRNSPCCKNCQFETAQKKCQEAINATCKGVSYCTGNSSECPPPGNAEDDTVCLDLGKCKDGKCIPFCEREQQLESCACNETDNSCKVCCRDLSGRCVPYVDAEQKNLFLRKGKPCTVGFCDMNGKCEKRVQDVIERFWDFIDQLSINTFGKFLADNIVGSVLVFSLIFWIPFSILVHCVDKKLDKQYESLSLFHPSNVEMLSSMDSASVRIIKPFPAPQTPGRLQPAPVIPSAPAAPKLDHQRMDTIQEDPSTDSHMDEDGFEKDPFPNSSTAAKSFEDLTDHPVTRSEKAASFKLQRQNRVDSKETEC

For `CCNC(=S)N/N=C/c1cn(Cc2ccccc2F)c2ccccc12`, the EC50 [1] was 15.9 µM (active), the IC50 [2] was > 69.5 µM (inactive) and the EC50 [3] was 19.7 µM (active). The IC50 [4] was > 69.5 µM (inactive) and the EC50 [5] was 24.4 µM (active).
With `Cc1ccc2cc3c(NC(=O)c4ccco4)nn(C)c3nc2c1` the AC50 [6] was 179 µM (active) and the AC50 ([6]; 24 h) was 121 µM (active).
For `Cc1cc2oc(=O)cc(-c3ccccc3)c2c(C)c1-c1ccc(O)cc1`, the EC50 [7] was > 53 µM (inactive), the IC50 [2] was > 69.5 µM (inactive) and the IC50 [8] was > 47.1 µM (inactive). For the same compound, the IC50 [4] was > 69.5 µM (inactive).
In the case of `Cc1ccc2nc(NC(=O)COC(=O)c3cccnc3)sc2c1`, the IC50 (cells [9]) is reported as > 67.5 µM (inactive) and the IC50 [10] is reported as > 67.5 µM (inactive).
In the case of `CC[n+]1c(C=CN(C)c2ccccc2)sc2ccc(Cl)cc21.[O-][Cl+3]([O-])([O-])[O-]`, the EC50 [11] is reported as 5.94 µM (active), the AC50 [12] is reported as 39.8 µM (active) and the EC50 [13] is reported as 3.29 µM (active). For the same compound, the EC50 [14] was > 150 µM (inactive), the AC50 [15] was 8.92 µM (active) and the AC50 [16] was 59.3 µM (active). The AC50 [17] was 26.3 µM (active), the AC50 [18] was 13 µM (active) and the AC50 (Cytochrome P450 2C19) was “inconclusive”. The EC50 (cells [19]) was 0.146 µM (active) and the EC50 [20] was < 0.1 µM (active).
In the case of `Cn1cc(Cl)c(C(=O)NN=C(S)Nc2cccc(Cl)c2)n1`, the IC50 [21] is reported as > 122 µM (inactive).
With `CC(=O)N(C)C[C@H]1Oc2cc(/C=C/c3ccccc3)ccc2S(=O)(=O)N([C@@H](C)CO)C[C@H]1C` the AC50 [22] was 0.451 µM (active) and the AC50 [23] was 26.9 µM (active).

From ChEMBL document CHEMBL1201862, “PubChem BioAssay data set” (2004)
